What all share (format): cell-based, human
Assay [1] relates to BT-549 Gal-3 H^64 cells. Put plainly: Cisplatin induced apoptosis, MTT assay. The note with it: BT-549 cells expressing galectin-3 H^64 variant, 25 uM cisplatin, 72 hr, 37° C. The procedure:
(§1) FIGS. 4I and 4II show cisplatin induced apoptosis of BT-549 cells and cloned variants, FIG. 4I: % apoptosis in cells treated with 25 uM cisplatin for 72 hr at 37° C. and analyzed following MTT assay (ODs in the untreated control cells were calculated as 100%, and the values are the average of triplicate experiments, bars represent ±SD, *P>0.001), FIG. 4II: Western blot analysis of the expression of PARP in cells treated with 50 μM cisplatin after 24, 48, and 72 hours, IIA: BT-549; IIB: BT-549 Gal-3 H^64; IIC: BT-549 Gal-3 P^64 (β-Actin was used as loading control. 1—untreated; 2—24 hours; 3—48 hours; 4—72 hours), FIGS. 4IIIA-B and 4IIIA′-C′: Immunohistochemical analysis of intact and cleaved galectin-3 in breast cancer progression. To investigate the possible functional significance of this allelic variation, BT-549 stable cell clones over-expressing either Galectin-3 P^64 or H^64 variant after transfection, selection, and cloning of BT-549 galectin-3 null cells were generated. […] In parental and P64 clone, the apoptotic cells were 76.5±1.34% and 71.5±3.02% respectively (FIG. 4I). That the cells' death was due to apoptosis was confirmed by the cleavage of PARP. […] A-A′: normal breast tissue, B-B′: ductal hyperplasia, C-C′: infiltrating lobular carcinoma. Arrows in B′ and C′ indicate the cleaved protein, representative pictures are presented from a study of 5 normal breast tissues, 10 lobular hyperplasia, and 8 infiltrating lobular carcinoma cases. 2500 BT-549, BT-549 Gal-3 H^64 and BT-549 Gal-3 P^64 cells were seeded per well in triplicates onto 24 well culture dishes. In one set of wells, 25 μM cisplatin (Sigma-Aldrich Inc., St. Louis, Mo.) was added after 24 hr of seeding, the other non-treated set served as a control. Cell viability/apoptosis was determined after 72 hours by the mitochondrial-dependent reduction of 3-(4,5-dimethylthiazol-2-yl)-2,5-diphenyltetrazolium bromide (MTT) (Sigma-Aldrich Inc., St. Louis, Mo.) to formazan.
Background: Tetrazolium assays rely on reduction of a dye to a coloured formazan, in cell work by metabolically active cells.

The subject of assay [2] is BT-549 Gal-3 P^64 cells. Description: Cisplatin induced apoptosis, MTT assay. The note with it: BT-549 galectin-3 P64 clone, 25 uM cisplatin, 72 hr, 37° C. The procedure:
as §1

Assay [3] deals with BT-549 cells. Put plainly: Cisplatin induced apoptosis, MTT assay. The following applies: parental BT-549 cells, 25 uM cisplatin, 72 hr, 37° C. How it is done:
as §1

The test system of assay [4] is BT-549 Gal-3 H^64 cells. Description: Western blot analysis of PARP cleavage after cisplatin treatment. The following applies: galectin-3 H^64 cells, 50 μM cisplatin, 24, 48, 72 hours. How it is done:
(§2) FIGS. 4I and 4II show cisplatin induced apoptosis of BT-549 cells and cloned variants, FIG. 4I: % apoptosis in cells treated with 25 uM cisplatin for 72 hr at 37° C. and analyzed following MTT assay (ODs in the untreated control cells were calculated as 100%, and the values are the average of triplicate experiments, bars represent ±SD, *P>0.001), FIG. 4II: Western blot analysis of the expression of PARP in cells treated with 50 μM cisplatin after 24, 48, and 72 hours, IIA: BT-549; IIB: BT-549 Gal-3 H^64; IIC: BT-549 Gal-3 P^64 (β-Actin was used as loading control. 1—untreated; 2—24 hours; 3—48 hours; 4—72 hours), FIGS. 4IIIA-B and 4IIIA′-C′: Immunohistochemical analysis of intact and cleaved galectin-3 in breast cancer progression. To investigate the possible functional significance of this allelic variation, BT-549 stable cell clones over-expressing either Galectin-3 P^64 or H^64 variant after transfection, selection, and cloning of BT-549 galectin-3 null cells were generated. […] In parental and P64 clone, the apoptotic cells were 76.5±1.34% and 71.5±3.02% respectively (FIG. 4I). That the cells' death was due to apoptosis was confirmed by the cleavage of PARP. […] A-A′: normal breast tissue, B-B′: ductal hyperplasia, C-C′: infiltrating lobular carcinoma. Arrows in B′ and C′ indicate the cleaved protein, representative pictures are presented from a study of 5 normal breast tissues, 10 lobular hyperplasia, and 8 infiltrating lobular carcinoma cases. To determine if cell death is due to apoptosis, 1×10^6 cells were seeded in 100 mm Petri dishes. After 24 hours of serum starvation, the cells were incubated with […]. After 24, 48, 72 hours, the cells were trypsinized, lysed and equivalent number of cells (1×10^5) were subjected to SDS-PAGE and Western blot analysis with a 1:200 dilution of anti-poly (ADP-ribose) polymerase (PARP), mouse monoclonal antibody (BioMol, Plymouth Meeting, Pa.). Blots were also immuno-reacted with a 1:5000 dilution of anti-b-actin mouse monoclonal antibody to normalize for variation in protein loading. […]

The subject of assay [5] is BT-549 Gal-3 P^64 cells. Described as above. The following applies: galectin-3 P^64 expressing cells, 50 μM cisplatin, 24, 48, 72 hours. The procedure: as §2
Assay [6] has as its system BT-549 cells. The assay is described as above. The note with it: parental BT-549 cells, 50 μM cisplatin, 24, 48, 72 hours. The procedure: as §2

In the case of `N.N.[Cl][Pt][Cl]` [cisplatin], the apoptotic cells came to 36.2±2.2% with BT-549 Gal-3 H^64 cells [1], 71.5±3.02% in the assay on BT-549 Gal-3 P^64 cells [2] and 76.5±1.34% in the assay on BT-549 cells [3]. For the same compound, the “PARP cleavage (85 kDa cleaved polypeptide)” value is “refractive to PARP cleavage” in the assay with BT-549 Gal-3 H^64 cells [4], “showed the 85 kDa cleaved polypeptide of PARP” in the assay with BT-549 Gal-3 P^64 cells [5] and “showed the 85 kDa cleaved polypeptide of PARP” in the assay with BT-549 cells [6].

Source of the values: US20100196882A1, “GALECTIN-3 nsSNP MARKER FOR CANCER” (priority 2009, published 2010).
